Patent US6835747B1, “Ft-0554a substances and process for the preparation thereof” (The Kitasato Institute, priority 2003, dated 2004)
Entries after “also recorded” stand apart in the source; their conditions may differ.

Assays:
NADH-fumarate reductase = NADH-fumarate reductase (Ascaris suum, UniProt P24875); assay: NADH-fumarate reductase inhibitory activity, Ascaris suum mitochondrial fraction, NADH absorption at 340 nm; format: biochemical
Description: NADH-fumarate reductase inhibitory activity of FT-0554A substance of the present invention is explained as follows.
Muscles of Ascaris suum were homogenized in 120 mM sodium phosphate solution (pH 7.0) and centrifuged at 3000×g for 10 minutes to collect the supernatant solution. The supernatant was further centrifuged at 10000×g for 20 minutes to collect the precipitate. The precipitate was suspended in 120 mM sodium phosphate solution (pH 7.0) to obtain mitochondorial fraction.
After 10 μl of test sample dissolved in 50% dimethyl sulfoxide solution was added into 96 wells microplate, 80 μl of 120 mM sodium phosphate solution (pH 7.0) containing 0.35 mM NADH, 7.2 mM disodium fumarate and 18 mg/ml bovine serum albumin was added thereto, and pre-incubated in the microplate reader ELX808 (Bio-Teck Industries Co.) at 37° C. for 5 minutes. Mithochondrial fraction of Ascaris suum 10 μl (protein content 0.3 mg) was added therein and incubated at 37° C. for 10 minutes. Absorption of NADH at 340 nm was measured every 15 seconds.
As a result of quantitative measurement of NADH-fumarate reductase activity shown by decrease in the slope of absorbancy at 340 nm, 50% inhibition of NADH-fumarate reductase activity were obtained at 0.4 μM of FT-0554A substance. Consequently, FT-0554A substance can be expected to use as drug for treatment or prevention of helminthiasis.

Solubility in solvent = format: physicochemical

Compound | NADH-fumarate reductase inhibitory activity (in words) (NADH-fumarate reductase) | Solubility in solvent (Solubility in solvent; chloroform and ethyl acetate) | Solubility in solvent (Solubility in solvent; water and n-hexane)
CCC(C)/C=C/C=C(\C)CC(C)/C=C/C=C/C1OC(=O)C(O)C2OC12C (stereo not shown) [FT-0554 substance, reference compound] | had NADH-fumarate reductase inhibitory activity |  | 
CCC(C)/C=C/C=C(\C)CC(C)/C=C/C=C/C(O)C1(C)C=C(O)C(=O)O1 (stereo not shown) [FT-0554A substance] | equivalent level of inhibitory activity | soluble | insoluble; also recorded: hardly soluble
